Results on 14 compounds are retold here after patent US12612413B2, “Heteroaryl compounds as inhibitors of programmed necrosis pathway, composition and method using the same” (ACCRO BIOSCIENCE INC., priority 2020, dated 2026).

Common to all, as to type: cell-based
In assay [1] the test system is MEF cells. Nature of the assay: MEF cell viability (necroptosis) assay. The following applies: Mus musculus, TNF-α (40 ng/mL), Smac mimetic (100 nM), z-VAD (20 μM), 12 h. The procedure:
(§1) MEF cells were added to 96-well plate. The compounds at different concentrations (0.3, 1.0, 3.0, 10.0, 20.0 μM) were then preprocessed for two hours. TNF-α (40 ng/mL), Smac mimetic (100 nM) and z-VAD (20 μM) were added, and the mixture was incubated for 12 h. Quantitative analysis of cell survival was conducted. DMSO pretreatment group was used as a negative control. Concentration for 50% of maximal effect was calculated according to the curve of the survival rate measured at different concentrations. FIG. 2 depicts the EC50 curves of compound A9.

Assay [2] concerns HT-29 cells. Put plainly: HT-29 cell viability (necroptosis) assay. Particulars: Homo sapiens, TNF-α (40 ng/mL), Smac mimetic (100 nM), z-VAD (20 μM), 40 h, from survival rate curve. The protocol: as §1, with “Human colon cancer HT-29 cells were used in a necroptosis assay. For this assay, HT-29 cells” for “MEF cells”, “96-well plates.” for “96-well plate.”, “for 40” for “for 12”, “cell viability” for “cell survival”, “FIG. 1” for “FIG. 2”, “compound A16.” for “compound A9.”

Assay [3] concerns L929 cells. Put plainly: L929 cell viability (necroptosis) assay. Particulars: Mus musculus, TNF-α (40 ng/mL), z-VAD (20 μM), 16 h. The procedure: L929 cells were added to 96-well plate. The compounds at different concentrations (0.3, 1.0, 3.0, 10.0, 20.0 μM) were then preprocessed for two hours. TNF-α (40 ng/mL), and z-VAD (20 μM) were added, and the mixture was incubated for 16 h. Quantitative analysis of cell survival was conducted. DMSO pretreatment was used as a negative control. Concentration for 50% of maximal effect was calculated according to the curve of the survival rate measured at different concentrations. FIG. 3 depicts the EC50 curves of compound A3.

Each structure is given as a SMILES string.

By EC50 is commonly meant the midpoint of the concentration-response curve. A low value points to a more potent agent. `CCOC1=C(C)S(=O)(=O)c2cc3c(Nc4ccc5scnc5c4)ccnc3cc21` [Compound A20]: the EC50 in assay [1] is 310 nM; in assay [2], 280 nM; in assay [3], 420 nM.

With `CCOC1=CS(=O)(=O)c2cc3c(Nc4ccc5scnc5c4)ccnc3cc21` [Compound A13], the EC50 is 200 nM in assay [1], 430 nM in assay [2] and 780 nM in assay [3].

Regarding `O=S1(=O)C=C(C2CC2)c2cc3nccc(Nc4ccc5scnc5c4)c3cc21` [Compound A9], the EC50 amounted to 240 nM in assay [1], 85 nM in assay [2] and 210 nM in assay [3].

Turning to `O=S1(=O)CC2(OCCO2)c2cc3nccc(Nc4ccc5scnc5c4)c3cc21` [Compound B2, 8-(benzo[d]thiazol-5-ylamino)-2H-spiro[thieno[2,3-g]quinoline-3,2′-[1,3]dioxolane]1,1-dioxide], the EC50 in assay [1] is 435 nM; in assay [2], 300 nM; in assay [3] it was 430 nM.

For the compound `O=S1(=O)CCc2cc3nccc(Nc4ccc5scnc5c4)c3cc21` [Compound B1, 8-(benzo[d]thiazol-5-ylamino)-2,3-dihydrothieno[2,3-g]quinoline 1,1-dioxide], the EC50 was 1740 nM in assay [2] and 64000 nM in assay [3].

`CC1=C(OCC2CC2)c2cc3nccc(Nc4ccc5scnc5c4)c3cc2S1(=O)=O` [Compound A21]: the EC50 in assay [1] stood at 440 nM; in assay [2] it was 310 nM; in assay [3], 8730 nM.

Regarding `CC(C)OC1=CS(=O)(=O)c2cc3c(Nc4ccc5scnc5c4)ccnc3cc21` [Compound A14], the EC50 in assay [1] is 290 nM; in assay [2], 280 nM.

Regarding `COCCOC1=CS(=O)(=O)c2cc3c(Nc4ccc5scnc5c4)ccnc3cc21` [Compound A17], the values for the EC50 in assay [1] and in assay [2] were 300 nM and 260 nM, respectively.

As to `CC1(C)C(=O)c2cc3nccc(Nc4ccc5scnc5c4)c3cc2S1(=O)=O` [Compound B4, 8-(benzo[d]thiazol-5-ylamino)-2,2-dimethylthieno[2,3-g]quinolin-3(2H)-one 1,1-dioxide], the EC50 in assay [1] was determined as 9330 nM; in assay [2], 2080 nM.

As to `Cn1ccc(C2=CS(=O)(=O)c3cc4c(Nc5ccc6scnc6c5)ccnc4cc32)n1` [Compound A33], the EC50 in assay [1] amounted to 380 nM; in assay [2], 350 nM.

Consider `C=C1c2cc3nccc(Nc4ccc5scnc5c4)c3cc2S(=O)(=O)C1(C)C` [Compound B8, 8-(benzo[d]thiazol-5-ylamino)-2,2-dimethyl-3-methylene-2,3-dihydrothieno[2,3-g]quinoline 1,1-dioxide], for which the values for the EC50 in assay [1] and in assay [2] were 1770 nM and 930 nM, respectively.

As for `O=S1(=O)C=C(c2ccccc2)c2cc3nccc(Nc4ccc5scnc5c4)c3cc21` [Compound A22], the values for the EC50 in assay [1] and in assay [2] were 830 nM and 450 nM, respectively.

As to `CC1=Cc2cc3nccc(Nc4ccc5scnc5c4)c3cc2S1(=O)=O` [Compound A3], the EC50 in assay [2] came out at 620 nM; in assay [3], 1940 nM.

Regarding `CC1=CS(=O)(=O)c2cc3c(Nc4ccc5scnc5c4)ccnc3cc21` [Compound A7], the EC50 amounted to 380 nM in assay [2] and 240 nM in assay [3].
